# Experiments:
# 3T3-L1 cells = test: Adiponectin secretion amount in 3T3-L1 medium supernatant by ELISA; type: cell-based, mouse; conditions: medium 7 days after differentiation induction, non-treatment control 4.27 ± 0.32, average ± standard error
# Experimental: Next, culture preadipocytes 3T3-L1 were thawed, inoculated in a 100 mm dish and cultured until 3T3-L1 cells reached about 80% confluence. A single dish of 3T3-L1 that had reached about 80% confluence was subcultured to a single 6-well plate and further cultured until the 3T3-L1 cells reached confluence in the 6-well plate, and then the medium was replaced with the differentiation induction medium, followed by differentiation induction. 48 hours later, the medium was replaced with the differentiation promotion medium, and thereafter, the medium was replaced with the differentiation promotion medium every two days. 7 days after the initiation of the differentiation induction, mRNA was extracted using Sepasol-RNA I Super (trade name; manufactured by Nacalai Tesque, Inc.), and the mRNA expression amounts of 36B4, aP2 and adiponectin, which were indicators of an early period of adipocyte differentiation, were measured using Light Cycler (TM). Also, the medium 7 days after the differentiation induction was taken in an amount of 1 mL from each well, and the amount of adiponectin in the medium supernatant was measured using a mouse/rat adiponectin ELISA kit (manufactured by Otsuka Pharmaceutical Co., Ltd.). […]
# Only the strips of the antibody plates necessary for the analysis were taken out. […] Incidentally, the standard solutions always were measured for each measurement and each plate. […]
# [1] = system: HepG2 cells (human hepatic cells); test: VLDL secretion inhibition experiment in HepG2 cells (apoB100 ELISA); type: cell-based; conditions: 30 hours, measurement group/control group, DMSO control = 100, average ± standard error
# Experimental: A sandwich ELISA that recognized human apoB100 in the VLDL as an antigen was used. First, 100 μL of Moab×LDL Apolipoprotein B (ApoB) (manufactured under MONOSAN®) was dispensed in each well of ELISA PLATE, and the plate was sealed with a sterile seal and then allowed to stand still at 4° C. overnight. In the following, all the dispensing mentioned is for a single well. On the next day, 200 μL of Zepto Block (trade name, manufactured by ZeptoMetrix Corporation) was dispensed, and then the above-noted plate was sealed and allowed to stand still for 2 hours at room temperature for blocking. Subsequently, 100 μL of the medium and the VLDL standard solution were dispensed, and then the plate was sealed and allowed to stand still for 1 hour at room temperature. Washing with 200 μL of PBST and absorption using an aspirator were carried out five times in total. Then, 100 μL of Affinity Purified Anti-Apolipoprotein B (manufactured by Rockland Immunochemicals, Inc.) that had been diluted with PBS by 1000 times was dispensed and allowed to stand still for 1 hour at room temperature. After washing similarly to the above, 100 μL of Donkey Anti-goat IgG HRP (manufactured by Promega Corporation) that had been diluted with PBS by 5000 times was dispensed and allowed to stand still for 1 hour at room temperature. […] 100 μL of 1M phosphoric acid solution was added to the above-noted mixture solution, and the absorbance at 450 nm was measured using wallac ARVOsx (trade name, PerkinElmer Life Sciences, PerkinElmer, Inc.). […]
# HepG2 was cultured to 80% to 90% confluence in a 100 mm/Collagen-Coated Dish (trade name, manufactured by Iwaki Glass Works, Co.). […] Using this collected medium, the number of living cells were counted, and the Western blotting and the ELISA measurement were carried out similarly to the above. From the result of the ELISA, the ratio of the VLDL secretion amount between the measurement group and the non-treated control group (measurement group/control group) was calculated for each sample.
smiles,measurement,setting,value
"CC(C)=CCC/C(C)=C/COc1c2ccoc2cc2oc(=O)ccc12 [Bergamottin, bergamottin]",Adiponectin secretion amount,3T3-L1 cells; 1 μM,4.37 ± 0.12
same,Adiponectin secretion amount,3T3-L1 cells; 5 μM,8.14 ± 0.36
same,VLDL secretion ratio (%),[1]; 10 μM,63.4 ± 10.94%
same,VLDL secretion ratio (%),[1]; 20 μM,65.5 ± 13.21%
same,VLDL secretion ratio (%),[1]; 50 μM,45.9 ± 6.29%

# Source: US8257755B2, “Metabolic syndrome-improving agent and medicine, supplement, functional food and food additive containing the same” (ARKRAY, Inc., priority 2005, dated 2012)
